Where “and” joins values, the source holds several entries; their conditions need not be identical. Identical values can stand only once. Like-named read-outs stand apart in the source and are kept apart here.
What was measured:
[1] = system: A/Thailand/2(Kan-1)/16/2004 (H5N1); experiment: microbe, parasite or virus in culture; type: cell-based; conditions: Influenza A virus, H5N1, MDCK, read-out: IC90, VYR Assay
[2] = system: A/Hong Kong/213/2003 (H5N1); experiment: microbe, parasite or virus in culture; type: cell-based; conditions: Influenza A virus, H5N1, MDCK, read-out: IC90, VYR Assay
[3] = system: Influenza A/Sydney/05/97 (H3N2); experiment: microbe, parasite or virus in culture; type: cell-based; conditions: H3N2, MDCK, read-out: IC90, VYR Assay
[4] = system: A/Vietnam/1203/04H (A/Vietnam/1203/04 × Ann Arbor/6/60 hybrid); experiment: microbe, parasite or virus in culture; type: cell-based; conditions: Influenza A virus, MDCK, read-out: IC90, VYR Assay
B/Florida/4/2006 [5] = experiment: microbe, parasite or virus in culture; type: cell-based; conditions: Influenza B virus, MDCK, read-out: IC90, VYR Assay
influenza viruses = experiment: microbe, parasite or virus in culture; type: cell-based, influenza A and B viruses; conditions: Influenza A virus, MDCK, read-out: IC50, all viruses tested
[6] = system: influenza A/CA/04/09 pandemic H1N1 virus; design: species or system BALB/c mice; conditions: mouse, in vivo
[7] = system: A/Thailand/2(Kan-1)/16/2004 (H5N1)
[8] = system: A/Thailand/2(Kan-1)/16/2004 (H5N1); remark: listed apart in the source
[9] = system: A/Hong Kong/213/2003 (H5N1)
[10] = system: A/Hong Kong/213/2003 (H5N1); remark: listed apart in the source
[11] = system: influenza A/CA/07/2009 (H1N1)
[12] = system: A/Brisbane/10/2007 (H3N2)
[13] = system: A/Hong Kong/213/2003H (A/Hong Kong/213/2003 × Ann Arbor/6/60 hybrid)
[14] = system: A/Vietnam/1203/04H (A/Vietnam/1203/04 × Ann Arbor/6/60 hybrid)
B/Malaysia/2506/2004 [15] = system: B/Malaysia/2506/2004
B/Florida/4/2006 [16] = system: B/Florida/4/2006
[17] = system: influenza A/Vietnam/1203/2004 H5N1 virus; conditions: in vivo
influenza virus = conditions: in vivo; cited from earlier work
[18] = system: A/Thailand/2(Kan-1)/16/2004 (H5N1); experiment: microbe, parasite or virus in culture; conditions: Influenza A virus, H5N1, MDCK, read-out: IC50, Visual Assay
[19] = system: A/Thailand/2(Kan-1)/16/2004 (H5N1); experiment: microbe, parasite or virus in culture; conditions: Influenza A virus, H5N1, MDCK, read-out: IC50, Neutral Red Uptake Assay
[20] = system: A/Hong Kong/213/2003 (H5N1); experiment: microbe, parasite or virus in culture; conditions: Influenza A virus, H5N1, MDCK, read-out: IC50, Visual Assay
[21] = system: A/Hong Kong/213/2003 (H5N1); experiment: microbe, parasite or virus in culture; conditions: Influenza A virus, H5N1, MDCK, read-out: IC50, Neutral Red Uptake Assay
[22] = system: influenza A/CA/07/2009 (H1N1); experiment: microbe, parasite or virus in culture; conditions: H1N1, MDCK, read-out: IC50, Visual Assay
A/Duck/MN/1525/81 (H5N1) = experiment: microbe, parasite or virus in culture; conditions: Influenza A virus, H5N1, MDCK, read-out: IC50, Visual Assay
B/Malaysia/2506/2004 [23] = experiment: microbe, parasite or virus in culture; conditions: Influenza B virus, MDCK, read-out: IC50, Visual Assay
[24] = system: Influenza A/Vietnam/1203/2004 (H5N1); experiment: microbe, parasite or virus in culture; type: cell-based; conditions: H5N1, MDCK, read-out: IC90, VYR Assay
[25] = system: Influenza A/Vietnam/1203/2004 (H5N1)
[26] = system: Influenza A/Vietnam/1203/2004 (H5N1); remark: listed apart in the source
[27] = system: A/Hong Kong/213/2003H (A/Hong Kong/213/2003 × Ann Arbor/6/60 hybrid); remark: listed apart in the source
[28] = mouse, in vivo
in vitro = conditions: dog, CC50 values, range, neutral red uptake assay
[29] = system: Influenza A/Vietnam/1203/2004 (H5N1); experiment: microbe, parasite or virus in culture; conditions: H5N1, MDCK, read-out: IC50, Visual Assay
[30] = system: Influenza A/Vietnam/1203/2004 (H5N1); experiment: microbe, parasite or virus in culture; conditions: H5N1, MDCK, read-out: IC50, Neutral Red Uptake Assay

`Nc1ccn([C@@H]2O[C@H](CO)[C@@H](O)[C@H]2F)c(=O)n1` [2’-deoxy-2’-fluorocytidine, 2'-deoxy-2'-fluorocytidine] showed an IC90 [1] of 690 nM, an IC90 [2] of 1540 nM and an IC90 [3] of 6700 nM. It also gave an IC90 [4] of 2900 nM, an IC90 (B/Florida/4/2006 [5]) of 2100 nM and an IC50 (influenza viruses) of less than 15000 nM. For the same compound, the Live/Total [6] was 5/10 and 4/10 and 0/10, the “Mean Day of Death ± SD” value [6] was 7.8 ± 1.3 days and 8.9 ± 1.2 days and 9.3 ± 2.1 days and the “SI (CC50/IC50), Visual Assay” value [7] was greater than 676 ± 204. For the same compound, the “SI (CC50/IC50), Neutral Red Uptake Assay” value [8] was greater than 251 ± 249, the “SI (CC50/IC50), Visual Assay” value [9] was greater than 1954 ± 553 and the “SI (CC50/IC50), Neutral Red Uptake Assay” value [10] was greater than 447 ± 216. For the same compound, the “SI (CC50/IC50), Neutral Red Uptake Assay” value [11] was greater than 24, the “SI (CC50/IC50), Neutral Red Uptake Assay” value [12] was greater than 7.1 and the “SI (CC50/IC50), Neutral Red Uptake Assay” value [13] was greater than 14. The “SI (CC50/IC50), Neutral Red Uptake Assay” value [14] was greater than 29, the “SI (CC50/IC50), Neutral Red Uptake Assay” value (B/Malaysia/2506/2004 [15]) was greater than 24 and the “SI (CC50/IC50), Visual Assay” value (B/Florida/4/2006 [16]) was greater than 100. For the same compound, the “Maximum tolerated effective dose” value ([17]; female, BALB/c, mouse, ip) was 60 mg/kg/day, the “Lung Score ± SD” value ([17]; mouse) was 0.4 ± 0.25 and 0.2 ± 0.27 and the “Mice protected from lethal effects” value ([17]; mouse) was 60%. The “Protection from death, i.p.” value ([17]; mouse) was “partially, but significantly protected from death”, the “Protection from mortality, per os” value ([17]; mouse) was “not protected from mortality” and the “Virus Lung Titers ± SD” value ([17]; mouse) was 3.60 ± 1.303 Log10/g and 4.01 ± 0.713 Log10/g. The “Effect on virus lung titers in the mouse model” value (influenza virus) was “did not reduce virus lung titers”, the IC50 [18] was 160 ± 40 nM and the IC50 [19] was 720 ± 510 nM. For the same compound, the IC50 [20] was 50 ± 10 nM, the IC50 [21] was 270 ± 140 nM and the IC50 [22] was 3200 nM. It also gave an IC50 (A/Duck/MN/1525/81 (H5N1)) of 250 nM and an IC50 (B/Malaysia/2506/2004 [23]) of 1900 nM.
For `Nc1ccn([C@@H]2O[C@H](CO)[C@@H](O)C2(F)F)c(=O)n1` [2’-deoxy-2’, 2’-difluorocytidine, reference compound], the IC90 [24] was 30 nM, the IC90 [3] was 1600 nM and the IC90 [4] was 320 nM. The IC90 (B/Florida/4/2006 [5]) was 1700 nM, the “SI (CC50/IC50), Visual Assay” value [25] was greater than 3100 and the “SI (CC50/IC50), Neutral Red Uptake Assay” value [26] was greater than 3100. For the same compound, the “SI (CC50/IC50), Neutral Red Uptake Assay” value [11] was 6.9, the “SI (CC50/IC50), Neutral Red Uptake Assay” value [12] was 8.1 and the “SI (CC50/IC50), Visual Assay” value [27] was greater than 3100. For the same compound, the “SI (CC50/IC50), Neutral Red Uptake Assay” value [13] was greater than 1538, the “SI (CC50/IC50), Neutral Red Uptake Assay” value [14] was greater than 500 and the “SI (CC50/IC50), Neutral Red Uptake Assay” value (B/Malaysia/2506/2004 [15]) was greater than 1500. The “SI (CC50/IC50), Visual Assay” value (B/Florida/4/2006 [16]) was greater than 1400, the “Inhibition in the H5N1 mouse model” value [17] was “not inhibitory” and the “Toxicity in the H5N1 mouse model” value [17] was “very toxic”. The “Protection against lethal challenge” value ([17]; mouse) was “not significantly effective”, the “Tolerability in uninfected mice” value [28] was “well tolerated” and the CC50 (in vitro) was 1100 to 280000 nM. The IC50 [29] was less than 32 nM, the IC50 [30] was less than 32 nM and the IC50 [22] was 180 nM. For the same compound, the IC50 (A/Duck/MN/1525/81 (H5N1)) was less than 320 nM and the IC50 (B/Malaysia/2506/2004 [23]) was less than 32 nM.
